Source: publication PMC6150336, “Hepatotoxicity Induced by Sophora flavescens and Hepatic Accumulation of Kurarinone, a Major Hepatotoxic Constituent of Sophora flavescens in Rats” (Molecules : A Journal of Synthetic Chemistry and Natural …, 2017)
Where two headings read alike, the source gives them in different places. Blank lines part the entries; values can stand above or below the molecule they belong to.

Key:
HL-7702 cells = experiment: Effect of kurarinone on triglyceride levels in HL-7702 cells; format: cell-based, human; conditions: HL 7702 cells exposed for 24 h
Method: HL-7702 cells were cultured in RPMI-1640 medium (Gibco, Grand Island, NY, USA) containing 10% fetal bovine serum (FBS) (Gibco, USA) in a humidified atmosphere of 5% CO2 at 37 °C. The cells were seeded in 24-well plates, cultured for 24 h, and incubated with kurarinone (1, 8, 16, 24, 32, 44, and 60 μM) dissolved in RPMI-1640 medium without FBS for 24 h. Triglyceride levels were determined using a triglyceride assay kit (Nanjing Jiancheng Bioengineering Institute) according to the manufacturer’s instructions.

[1] = ESF tissue distribution study in rats; format: in vivo, rat; conditions: for AUC(0-t): male, rat
Method: Male rats were divided into five groups corresponding to five experimental time points (n = 3 in each group). Rats under urethane anesthesia were sacrificed by bleeding from the abdominal aorta and hepatic portal vein at 15 min, 30 min, 1 h, 2 h, and 4 h time points (3 rats/time point) after a p.o. dose of ESF (2.5 g/kg). The liver, kidneys, heart, skeletal muscles, small intestine, and bile were harvested and homogenized in threefold volume of ice-cold saline. Kurarinone levels in vivo in the plasma and liver were examined at the time points when blood biochemistry parameters were measured. Kurarinone and kurarinone glucuronides levels were detected by LC-MS/MS [24, 25].

[2] = method and reference not given; cited from earlier work
[3] = AUC0–4h after oral administration of ESF (2.5 g/kg) in rats

Triglyceride accumulation (HL-7702 cells; 1-60 μM): accumulated dose-dependently
Exposure of liver compared with plasma ([1]; ESF (2.5 g/kg) orally in rats): much higher
Form of kurarinone in visceral organs ([1]; ESF-treated rats): predominant
AUC(0-t) ([1]; bile, AUC0–4h after oral administration of ESF (2.5 g/kg) in rats, read-out: AUC0–t Biliary Secretion): 0.8 µM·h
AUC(0-t) ([1]; heart, AUC0–4h after oral administration of ESF (2.5 g/kg) in rats, read-out: AUC0–t Heart): 4.7 µM·h
AUC(0-t) ([1]; hepatic portal vein plasma, AUC0–4h after oral administration of ESF (2.5 g/kg) in rats, read-out: AUC0–t Protal Plasma): 4.4 µM·h
AUC(0-t) ([1]; kidney, AUC0–4h after oral administration of ESF (2.5 g/kg) in rats, read-out: AUC0–t Kidney): 5.4 µM·h
AUC(0-t) ([1]; liver, AUC0–4h after oral administration of ESF (2.5 g/kg) in rats, read-out: AUC0–t Liver): 45.5 µM·h
AUC(0-t) ([1]; skeletal muscle, AUC0–4h after oral administration of ESF (2.5 g/kg) in rats, read-out: AUC0–t Skeletal Muscle): 6.9 µM·h
AUC(0-t) ([1]; small intestine, AUC0–4h after oral administration of ESF (2.5 g/kg) in rats, read-out: AUC0–t Intestine): 21.4 µM·h
AUC(0-t) ([1]; systemic (body) plasma, AUC0–4h after oral administration of ESF (2.5 g/kg) in rats, read-out: AUC0–t Body Plasma): 2.4 µM·h
Molecule: C=C(C)[C@H](CC=C(C)C)Cc1c(O)cc(OC)c2c1O[C@H](c1ccc(O)cc1O)CC2=O [Kurarinone, kurarinone]
EC50 (HL-7702 cells; Homo sapiens, L02, read-out: EC50, increase of triglyceride): 31.2 ± 2.47 µM
log p [2]: 5.6

AUC0–t Biliary Secretion [1, 3]: 93.3 µM·h
AUC0–t Body Plasma [1, 3]: 15.3 µM·h
AUC0–t Heart [1, 3]: 0.1 µM·h
AUC0–t Intestine [1, 3]: 2.2 µM·h
AUC0–t Kidney [1, 3]: 0.7 µM·h
AUC0–t Liver [1, 3]: 1.4 µM·h
AUC0–t Protal Plasma [1, 3]: 25.0 µM·h
AUC0–t Skeletal Muscle [1, 3]: 0.4 µM·h
Form of kurarinone in plasma and bile ([1]; ESF-treated rats): dominant form
Molecule: kurarinone glucuronide
